From patent publication US12723063B2, “GIPR-agonist compounds” (Eli Lilly and Company, priority 2019, dated 2026)
*1 amine or outer side, *2 acyl side, *3 side chain or, on linkers, in order; H or OH if unused. Where a SMILES comes first, the peptide text is derived from it. Side-chain parts run from the residue outwards. [ ]: non-standard residue; d: D form. The star is where a group is joined. C20 diacid = O=C(O)CCCCCCCCCCCCCCCCCCC(=O)*; C18 diacid = O=C(O)CCCCCCCCCCCCCCCCC(=O)*; αMePhe(2-F) = C[C@](N)(Cc1ccccc1F)C(=O)O; γGlu = O=C(O)[C@H](CCC(=O)[*:2])N[*:1]; 4Pal = N[C@@H](Cc1ccncc1)C(=O)O; αMeL = CC(C)C[C@](C)(N)C(=O)O; Iva = CC[C@](C)(N)C(=O)O; Orn = NCCC[C@H](N)C(=O)O; AEEA = NCCOCCOCC(=O)O; Aib = CC(C)(N)C(=O)O

Experiments:
[1] = target: T1, human GcgR (Homo sapiens, UniProt P47871); assay: [125I]-Glucagon binding, SPA with WGA beads, 0.1% bacitracin; details: geometric mean, read-out: hGcgR Ki
T1 construct: expressed in transfected cells; crude membranes
T1 sequence (P47871 26-477): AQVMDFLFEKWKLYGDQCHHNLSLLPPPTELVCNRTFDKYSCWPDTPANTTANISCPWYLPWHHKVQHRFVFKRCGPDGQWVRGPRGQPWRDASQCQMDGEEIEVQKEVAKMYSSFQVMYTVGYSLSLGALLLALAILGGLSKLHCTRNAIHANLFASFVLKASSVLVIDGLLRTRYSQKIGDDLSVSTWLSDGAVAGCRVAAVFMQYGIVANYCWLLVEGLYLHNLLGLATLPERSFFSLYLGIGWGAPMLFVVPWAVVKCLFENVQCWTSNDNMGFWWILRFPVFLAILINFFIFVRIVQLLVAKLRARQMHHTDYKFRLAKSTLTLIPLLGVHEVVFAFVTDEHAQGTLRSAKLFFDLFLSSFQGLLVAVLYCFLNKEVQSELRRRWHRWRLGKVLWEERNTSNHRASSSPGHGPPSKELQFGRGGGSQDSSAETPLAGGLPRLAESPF
In short: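 SPA competition binding with WGA beads on crude membranes from HEK293 cells stably expressing hGcgR. Buffer: 25 mM HEPES pH 7.4, 2.5 mM CaCl2, 1 mM MgCl2, 0.1% bacitracin, 0.003% Tween-20; 10-point 3-fold dilutions, NSB with 1 μM Gcg.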

[2] = target: T2, human GLP-1R (Homo sapiens, UniProt P43220); assay: [125I]-GLP-1 binding, SPA with WGA beads, 0.1% bacitracin; details: geometric mean, read-out: hGLP1R Ki
T2 construct: expressed in transfected cells; crude membranes
T2 sequence (P43220 24-463): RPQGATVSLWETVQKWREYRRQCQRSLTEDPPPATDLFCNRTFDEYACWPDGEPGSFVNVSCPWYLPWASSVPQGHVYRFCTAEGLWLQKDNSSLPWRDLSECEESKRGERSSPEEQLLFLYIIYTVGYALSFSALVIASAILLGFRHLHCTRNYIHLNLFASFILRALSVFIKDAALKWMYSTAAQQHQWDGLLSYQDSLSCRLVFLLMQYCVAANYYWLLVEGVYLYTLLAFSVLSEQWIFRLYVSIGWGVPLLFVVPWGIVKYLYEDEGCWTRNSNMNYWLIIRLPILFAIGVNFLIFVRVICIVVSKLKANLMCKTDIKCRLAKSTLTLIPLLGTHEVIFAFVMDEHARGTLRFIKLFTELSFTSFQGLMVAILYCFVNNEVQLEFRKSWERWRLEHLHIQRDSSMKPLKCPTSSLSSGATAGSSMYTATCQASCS
In short: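 Binding buffer was 25 mM HEPES pH 7.4 with 2.5 mM CaCl2, 1 mM MgCl2, 0.1% (w/v) bacitracin, 0.003% Tween-20 and EDTA-free protease inhibitors. Four-parameter regression gave IC50, converted to Ki (geometric mean, SEM, n independent days).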

[3] = target: T3, human GIPR (Homo sapiens, UniProt P48546); assay: [125I]-GIP binding, SPA with WGA beads, 0.1% bacitracin; details: geometric mean, read-out: hGIPR Ki
T3 construct: expressed in transfected cells; crude membranes
T3 sequence (P48546 22-466): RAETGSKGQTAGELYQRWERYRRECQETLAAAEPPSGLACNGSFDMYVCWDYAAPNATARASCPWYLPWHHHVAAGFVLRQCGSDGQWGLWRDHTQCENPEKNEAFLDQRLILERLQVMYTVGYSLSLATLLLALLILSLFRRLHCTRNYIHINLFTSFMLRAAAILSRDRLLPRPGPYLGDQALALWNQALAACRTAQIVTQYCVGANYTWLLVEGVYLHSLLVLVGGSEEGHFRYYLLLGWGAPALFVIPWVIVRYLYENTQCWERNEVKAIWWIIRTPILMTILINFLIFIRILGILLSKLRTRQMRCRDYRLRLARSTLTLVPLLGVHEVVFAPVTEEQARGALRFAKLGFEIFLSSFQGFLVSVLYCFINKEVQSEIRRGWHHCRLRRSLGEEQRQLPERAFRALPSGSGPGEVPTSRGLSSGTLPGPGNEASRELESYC
In short: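 Ki values are geometric means (SEM, n independent days), derived from four-parameter nonlinear regression of IC50. Membranes came from hGIPR-expressing CHO cells.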

Compound	Ki [1] [nM]	Ki [2] [nM]	Ki [3] [nM]
CC[C@H](C)[C@H](NC(=O)[C@H](CCCN)NC(=O)[C@H](CC(=O)O)NC(=O)[C@H](CC(C)C)NC(=O)[C@](C)(CC(C)C)NC(=O)[C@@H](NC(=O)[C@H](CO)NC(=O)[C@H](Cc1ccc(O)cc1)NC(=O)[C@H](CC(=O)O)NC(=O)[C@H](CO)NC(=O)[C@@H](NC(=O)[C@H](Cc1ccccc1)NC(=O)[C@@H](NC(=O)CNC(=O)[C@H](CCC(=O)O)NC(=O)C(C)(C)NC(=O)[C@@H](N)Cc1ccc(O)cc1)[C@@H](C)O)[C@@H](C)CC)[C@@H](C)CC)C(=O)N[C@@H](Cc1c[nH]cn1)C(=O)N[C@@H](CCC(N)=O)C(=O)NC(C)(C)C(=O)N[C@@H](CCC(=O)O)C(=O)N[C@@H](Cc1ccccc1)C(=O)N[C@H](C(=O)N[C@H](CCC(=O)O)C(=O)N[C@@H](Cc1ccc(O)cc1)C(=O)N[C@@H](CCCCNC(=O)COCCOCCNC(=O)COCCOCCNC(=O)CC[C@H](NC(=O)CCCCCCCCCCCCCCCCCCC(=O)O)C(=O)O)C(=O)N[C@@H](CC(C)C)C(=O)N[C@@H](CCC(=O)O)C(=O)NCC(=O)NCC(=O)N1CCC[C@H]1C(=O)N[C@@H](CO)C(=O)N[C@@H](CO)C(=O)NCC(=O)N[C@@H](C)C(=O)N1CCC[C@H]1C(=O)N1CCC[C@H]1C(=O)N1CCC[C@H]1C(=O)N[C@@H](CO)C(N)=O)C(C)C [Example 102] (H-Y[Aib]EGTFISDYSI[αMeL]LD[Orn]IHQ[Aib]EFV[dE]YK([AEEA-AEEA-γGlu-C20 diacid])LEGGPSSGAPPPS-NH2)	> 961	> 913	0.164
CC[C@H](C)[C@H](NC(=O)[C@H](CO)NC(=O)[C@H](Cc1ccc(O)cc1)NC(=O)[C@H](CC(=O)O)NC(=O)[C@H](CO)NC(=O)[C@@H](NC(=O)[C@](C)(CC)NC(=O)[C@@H](NC(=O)CNC(=O)[C@H](CCC(=O)O)NC(=O)C(C)(C)NC(=O)[C@@H](N)Cc1ccc(O)cc1)[C@@H](C)O)[C@@H](C)CC)C(=O)N[C@@](C)(CC(C)C)C(=O)N[C@@H](CC(C)C)C(=O)N[C@@H](CC(=O)O)C(=O)N[C@@H](CCCN)C(=O)N[C@@H](CCCCNC(=O)COCCOCCNC(=O)COCCOCCNC(=O)CC[C@H](NC(=O)CCCCCCCCCCCCCCCCCCC(=O)O)C(=O)O)C(=O)N[C@@H](Cc1c[nH]cn1)C(=O)N[C@@H](CCC(N)=O)C(=O)NC(C)(C)C(=O)N[C@@H](CC(=O)O)C(=O)N[C@@H](Cc1ccccc1)C(=O)N[C@H](C(=O)N[C@@H](CCC(=O)O)C(=O)N[C@@H](Cc1ccncc1)C(=O)N[C@@H](CC(C)C)C(=O)N[C@@H](CC(C)C)C(=O)N[C@@H](CCC(=O)O)C(=O)NCC(=O)NCC(=O)N1CCC[C@H]1C(=O)N[C@@H](CO)C(=O)N[C@@H](CO)C(=O)NCC(=O)N[C@@H](C)C(=O)N1CCC[C@H]1C(=O)N1CCC[C@H]1C(=O)N1CCC[C@H]1C(=O)N[C@@H](CO)C(N)=O)C(C)C [Example 76] (H-Y[Aib]EGT[Iva]ISDYSI[αMeL]LD[Orn]K([AEEA-AEEA-γGlu-C20 diacid])HQ[Aib]DFVE[4Pal]LLEGGPSSGAPPPS-NH2)	358	263	0.0293
CC[C@H](C)[C@H](NC(=O)[C@H](CCCN)NC(=O)[C@H](CC(=O)O)NC(=O)[C@H](CC(C)C)NC(=O)[C@](C)(CC(C)C)NC(=O)[C@@H](NC(=O)[C@H](CO)NC(=O)[C@H](Cc1ccc(O)cc1)NC(=O)[C@H](CC(=O)O)NC(=O)[C@H](CO)NC(=O)[C@@H](NC(=O)[C@H](Cc1ccccc1)NC(=O)[C@@H](NC(=O)CNC(=O)[C@H](CCC(=O)O)NC(=O)C(C)(C)NC(=O)[C@@H](N)Cc1ccc(O)cc1)[C@@H](C)O)[C@@H](C)CC)[C@@H](C)CC)C(=O)N[C@@H](CCCNC(=N)N)C(=O)N[C@@H](CCC(N)=O)C(=O)NC(C)(C)C(=O)N[C@@H](CC(=O)O)C(=O)N[C@@H](Cc1ccccc1)C(=O)N[C@H](C(=O)N[C@@H](CCC(=O)O)C(=O)N[C@@H](Cc1ccc(O)cc1)C(=O)N[C@@H](CCCCNC(=O)COCCOCCNC(=O)COCCOCCNC(=O)CC[C@H](NC(=O)CCCCCCCCCCCCCCCCCCC(=O)O)C(=O)O)C(=O)N[C@@H](CC(C)C)C(=O)N[C@@H](CCC(=O)O)C(=O)NCC(=O)NCC(=O)N1CCC[C@H]1C(=O)N[C@@H](CO)C(=O)N[C@@H](CO)C(=O)NCC(=O)N[C@@H](C)C(=O)N1CCC[C@H]1C(=O)N1CCC[C@H]1C(=O)N1CCC[C@H]1C(=O)N[C@@H](CO)C(N)=O)C(C)C [Example 116] (H-Y[Aib]EGTFISDYSI[αMeL]LD[Orn]IRQ[Aib]DFVEYK([AEEA-AEEA-γGlu-C20 diacid])LEGGPSSGAPPPS-NH2)	178	> 912	0.166
CC[C@H](C)[C@H](NC(=O)[C@H](CO)NC(=O)[C@H](Cc1ccc(O)cc1)NC(=O)[C@H](CC(=O)O)NC(=O)[C@H](CO)NC(=O)[C@@H](NC(=O)[C@](C)(Cc1ccccc1F)NC(=O)[C@@H](NC(=O)CNC(=O)[C@H](CCC(=O)O)NC(=O)C(C)(C)NC(=O)[C@@H](N)Cc1ccc(O)cc1)[C@@H](C)O)[C@@H](C)CC)C(=O)N[C@@H](C)C(=O)N[C@@H](CC(C)C)C(=O)N[C@@H](CC(=O)O)C(=O)N[C@@H](CCCCN)C(=O)N[C@H](C(=O)N[C@@H](Cc1c[nH]cn1)C(=O)N[C@@H](CCC(N)=O)C(=O)NC(C)(C)C(=O)N[C@@H](CC(=O)O)C(=O)N[C@@H](Cc1ccccc1)C(=O)N[C@H](C(=O)N[C@@H](CCC(=O)O)C(=O)N[C@@H](Cc1ccc(O)cc1)C(=O)N[C@@H](CCCCNC(=O)COCCOCCNC(=O)COCCOCCNC(=O)CC[C@H](NC(=O)CCCCCCCCCCCCCCCCCCC(=O)O)C(=O)O)C(=O)N[C@@H](CC(C)C)C(=O)N[C@@H](CCC(=O)O)C(=O)NCC(=O)NCC(=O)N1CCC[C@H]1C(=O)N[C@@H](CO)C(=O)N[C@@H](CO)C(=O)NCC(=O)N[C@@H](C)C(=O)N1CCC[C@H]1C(=O)N1CCC[C@H]1C(=O)N1CCC[C@H]1C(=O)N[C@@H](CO)C(N)=O)C(C)C)[C@@H](C)CC [Example 99] (H-Y[Aib]EGT[αMePhe(2-F)]ISDYSIALDKIHQ[Aib]DFVEYK([AEEA-AEEA-γGlu-C20 diacid])LEGGPSSGAPPPS-NH2)	174	> 901	0.0341
CC[C@H](C)[C@H](NC(=O)[C@H](Cc1ccccc1)NC(=O)[C@@H](NC(=O)CNC(=O)[C@H](CCC(=O)O)NC(=O)C(C)(C)NC(=O)[C@@H](N)Cc1ccc(O)cc1)[C@@H](C)O)C(=O)N[C@@H](CO)C(=O)N[C@@H](CC(=O)O)C(=O)N[C@@H](Cc1ccc(O)cc1)C(=O)N[C@@H](CO)C(=O)N[C@H](C(=O)N[C@@](C)(CC(C)C)C(=O)N[C@@H](CC(C)C)C(=O)N[C@@H](CC(=O)O)C(=O)N[C@@H](CCCN)C(=O)N[C@@H](CCCCNC(=O)COCCOCCNC(=O)COCCOCCNC(=O)CC[C@H](NC(=O)CCCCCCCCCCCCCCCCCCC(=O)O)C(=O)O)C(=O)N[C@@H](Cc1c[nH]cn1)C(=O)N[C@@H](CCC(N)=O)C(=O)NC(C)(C)C(=O)N[C@@H](CC(=O)O)C(=O)N[C@@H](Cc1ccccc1)C(=O)N[C@H](C(=O)N[C@@H](CCC(=O)O)C(=O)N[C@@H](Cc1ccncc1)C(=O)N[C@@H](CC(C)C)C(=O)N[C@@H](CC(C)C)C(=O)N[C@@H](CCC(=O)O)C(=O)N[C@@H](C)C(=O)NCC(=O)N1CCC[C@H]1C(=O)N[C@@H](CO)C(=O)N[C@@H](CO)C(=O)NCC(=O)N[C@@H](C)C(=O)N1CCC[C@H]1C(=O)N1CCC[C@H]1C(=O)N1CCC[C@H]1C(=O)N[C@@H](CO)C(N)=O)C(C)C)[C@@H](C)CC [Example 4]	431	423	0.062
CC[C@H](C)[C@H](NC(=O)[C@H](CO)NC(=O)[C@H](Cc1ccc(O)cc1)NC(=O)[C@H](CC(=O)O)NC(=O)[C@H](CO)NC(=O)[C@@H](NC(=O)[C@H](Cc1ccccc1)NC(=O)[C@@H](NC(=O)CNC(=O)[C@H](CCC(=O)O)NC(=O)[C@@H](C)NC(=O)[C@@H](N)Cc1ccc(O)cc1)[C@@H](C)O)[C@@H](C)CC)C(=O)N[C@@H](CC(C)C)C(=O)N[C@@H](CC(C)C)C(=O)N[C@@H](CC(=O)O)C(=O)N[C@@H](CCCCN)C(=O)N[C@@H](CCCCNC(=O)COCCOCCNC(=O)COCCOCCNC(=O)CC[C@H](NC(=O)CCCCCCCCCCCCCCCCC(=O)O)C(=O)O)C(=O)N[C@@H](C)C(=O)N[C@@H](CCC(N)=O)C(=O)NC(C)(C)C(=O)N[C@@H](CC(=O)O)C(=O)N[C@@H](Cc1ccccc1)C(=O)N[C@H](C(=O)N[C@@H](CCC(=O)O)C(=O)N[C@@H](Cc1c[nH]c2ccccc12)C(=O)N[C@@H](CC(C)C)C(=O)N[C@@H](CC(C)C)C(=O)N[C@@H](C)C(=O)N[C@@H](CCC(N)=O)C(=O)NCC(=O)N1CCC[C@H]1C(=O)N[C@@H](CO)C(=O)N[C@@H](CO)C(=O)NCC(=O)N[C@@H](C)C(=O)N1CCC[C@H]1C(=O)N1CCC[C@H]1C(=O)N1CCC[C@H]1C(=O)N[C@@H](CO)C(N)=O)C(C)C [Example 16] (H-Y[dA]EGTFISDYSILLDKK([AEEA-AEEA-γGlu-C18 diacid])AQ[Aib]DFVEWLLAQGPSSGAPPPS-NH2)	549	99.2	0.0438
